“Also recorded” adds a separate entry of the source.
Key:
human ES cells [1] = experiment: Test Example 4: effect of FGF2 concentration on human ES cells, proportion of Cdx2-positive cells by flow cytometry; format: cell-based
Method: Since there has been a previous report that a high concentration of FGF2 is important for differentiation of human ES cells into Cdx2-positive cells, it was examined whether or not the same results can be obtained. The final concentration of 250 ng/mL of FGF2 was used. In accordance with the method in Test Example 3, differentiation of human ES cells was carried out on gelatin-coated dishes until they differentiated into endoderm, and then (on the 7th day of cultivation), 0, 50, and 250 ng/mL of FGF2, respectively, were added thereto besides BIO (5 μM) and DAPT (10 μM), and the cells were further cultured until the 9th day or 20th day, and the proportion of Cdx2-positive cells was evaluated by flow cytometry. The flow cytometry (FACS) analysis was carried out using BD Cytofix/Cytoperm™ Kit (BD Biosciences) in accordance with a manual provided by the manufacturer.

human ES cells [2] = experiment: Test Example 3: addition of various activators in human ES cells, proportion of Cdx2-positive cells by flow cytometry; format: cell-based; conditions: 20th day of cultivation; FGF2 50 ng/mL besides BIO (5 ηM) and DAPT (10 μM)
Method: With respect to human ES cells, it was examined whether or not addition of FGF2, BMP4 and/or SAG improves an efficiency of differentiation into Cdx2-positive cells in a feeder-free system.
First, for the experiment of inducing the differentiation, human ES cells were plated on gelatin-coated dishes at 69,000 cells/cm^2. The ES cells were cultured for seven days in RPMI 1640 medium (Invitrogen) supplemented with NEAA, L-Gln, PS, β-ME, 10 μg/mL of Insulin (Sigma-Aldrich), 100 ng/mL of recombinant human activin A (R&D Systems, Minneapolis, Minn.), and B27 supplement (Invitrogen). Then, the culture medium was replaced with 10% KSR supplemented with 2,000 mg/mL of glucose, BIO ([…]), DAPT (10 μM) and activators and growth factors at the concentrations as described in Test Example 2. After that, cell culturing was further continued, and the cells were separated on the 9th day and the 20th day of cultivation in the same manner as Example 1, and then, the proportion of Cdx2-positive cells was evaluated by use of flow cytometry. The flow cytometry (FACS) analysis was carried out using BD Cytofix/Cytoperm™ Kit (BD Biosciences) in accordance with a manual provided by the manufacturer.

[3] = tested on: definitive endoderm cells; experiment: Effects of FGFs on intestinal differentiation of definitive endoderm cells (RT-PCR, Cdx2 immunohistochemistry); format: cell-based, mouse
Method: The ES cells were culture on M15 cells added with 20 ng/mL of activin and 50 ng/mL of bFGF in DMEM medium containing 10% fetal bovine sera and […] of glucose for 5 days, and were analyzed using flow cytometry for definitive endoderm. For intestinal differentiation, the ES cells were further cultured on M15 or MEF cells, in the presence of BIO and DAPT, or without BIO and DAPT but with FGFs, in media with 10% KSR at a glucose concentration of 2000 mg/mL.
256 ng/mL of FGF2 (human bFGF) (Peprotech); and
50 ng/mL of FGF4 (Peprotech), FGF5 (Sigma), FGF7 (R&D Systems), FGF8 (Cosmo Bio), FGF9 (Peprotech), FGF10 (R&D Systems) and FGF18 (Sigma), respectively.
RNA was extracted from the ES cells using TRI Reagent (Sigma) or RNeasy micro-kit (Qiagen), and then, was treated with DNase (Sigma). Three micrograms of RNA were reverse-transcribed using a MMLV reverse transcriptase (Toyobo) and oligo dT primers (Toyobo). The PCR conditions for each cycle include initial denaturation at 96° C. for one minute, and the second and subsequent cycles of denaturation at 96° C. for 30 seconds, annealing at 60° C. for 2 seconds and extension at 72° C. for 20 seconds, and the final cycle of extension at 72° C. for 7 minutes. RT-PCR products were separated by 5% non-denaturing polyacrylamide gel electrophoresis, stained with SYBR Green I (Molecular Probes), and visualized using Gel Logic 200 Imaging System (Kodak).

mouse ES cells = experiment: Test Example 2: addition of various activators, proportion of Cdx2-positive cells by flow cytometry, feeder-free; format: cell-based; conditions: for Cdx2-positive cells: BIO (5 μM) and DAPT (10 μM) with or without FGF2 50 ng/mL
Method: Therefore, next, an experiment in which the FGF signaling, the BMP signaling and the Hh signaling were activated was carried out. In view of micro-array data showing that MEF cells express FGF2 and BMP4, 50 ng/mL of FGF2 (PEPROTECH) and 25 ng/mL of BMP4 (R&D Systems) were used to activate the FGF signaling and the BMP signaling. Furthermore, as to activation of the Hh signaling, 300 nM of SAG (MERCK) (smoothend agonist; smo) was used.
For the experiment of inducing the differentiation, the induction of differentiation was carried out in a feeder-free system as described below. First, mouse ES cells were plated on a gelatin-coated dish at 6,900 cells/cm^2. The ES cells were cultured for 7 days in DMEM medium (Dulbecco's Modified Eagle Medium) (Invitrogen, Glasgow, UK) containing 4,500 mg/L of glucose, supplemented with NEAA, L-Gln, PS, β-ME, 10 μg/mL of Insulin (Sigma-Aldrich), […] of Transferin (Sigma-Aldrich), 6.7 pg/mL of Selenium (Sigma-Aldrich), 0.25% AlbuMax (Invitrogen), and 10 ng/mL of recombinant human activin A (R&D Systems, Minneapolis, Minn.), and then, the culture medium was replaced with 10% KSR containing 2,000 mg/mL of glucose, BIO (5 μM) and DAPT (10 μM) and further supplemented with the activator or growth factor. After that, cell culturing was further continued, the cells were separated on the 10th day and the 15th day of cultivation as described in Example 1, and then, the proportion of Cdx2-positive cells was evaluated by use of flow cytometry. The flow cytometry (FACS) analysis was carried out using BD Cytofix/Cytoperm™ Kit (BD Biosciences) in accordance with a manual provided by the manufacturer.

[4] = tested on: khES-3 (human ES cell line); experiment: Intestinal differentiation of human ES cells on M15 cells; format: cell-based; design: dose or concentration left out as unconfirmed; conditions: activin for 10 days
From the text: Human ES cells (KhES-3) (PMID: 16707099) was those provided by Dr. N. Nakatsuji and Dr. H. Suemori (Kyoto University, Kyoto, Japan), and were used in accordance with the hES cell guidelines of the Japanese government. The undifferentiated hES cells were maintained on a feeder layer of MEF in Knockout DMEM/F12 (Invitrogen) supplemented with 20% KSR, L-Gln, NEAA and β-ME under 3% CO2. To passage the hES cells, hES cell colonies were detached from the feeder layer by treating them with 0.25% trypsin and 0.1 mg/mL of collagenase IV in PBS containing 20% KSR and 1 mM of CaCl2 at 37° C. for 5 minutes, followed by adding a culture medium thereto and gently pipetting them several times to desegregate ES cell clumps into smaller pieces (5-20 cells).
For differentiation induction, the human ES cells were pre-treated with Y27632 (Wako) for 24 hours, and then, they were plated at 50,000 cells per well in 24-well plates that had been pre-coated with M15 cells. The ES cells were dissociated with 0.25% trypsin-EDTA (Invitrogen), and cultured in Y27632 containing an ES maintenance medium for one day. One day after plating, the cells were washed by PBS, and the medium was changed to a differentiation medium. […]

Row | Molecule | proportion of Cdx2-positive cells (human ES cells [1]; 9th day of cultivation, 250 ng/mL of FGF2 besides BIO (5 μM) and DAPT (10 μM)) | proportion of Cdx2 positive cells (human ES cells [1]; 20th day of cultivation, 0, 50 and 250 ng/mL of FGF2 besides BIO (5 μM) and DAPT (10 μM)) | proportion of Cdx2-positive cells (human ES cells [2]) | induction of Cdx2-expressing intestinal cells ([3]; FGFs added from Day 4 of the differentiation, on MEF cells, immunohistochemistry on day 12) | molecular markers for enterocytes (Ifabp, Isx), goblet cells (Tff3), Paneth cells (Lyz1) and enteroendocrine cells (Sct, Syp, Sst, Gast) ([3]; RT-PCR, day 15, BIO and DAPT, or FGF2 (256 ng/mL) only without BIO and DAPT) | Cdx2-positive cells (mouse ES cells; 10th day of cultivation) [%] | number of Cdx2-positive cells versus control (only BIO and DAPT) (mouse ES cells; 10th day of cultivation, FGF2 50 ng/mL or SAG 300 nM added besides BIO and DAPT) | Cdx2-positive cells (mouse ES cells; 15th day of cultivation) | efficiency of differentiation versus control (only BIO and DAPT) (mouse ES cells; 15th day of cultivation, FGF2 added besides BIO and DAPT) | differentiation of khES-3 into definitive endoderm [4]
1 | FGF2: basic fibroblast growth factor, FGF2 (human bFGF) (Peprotech) | decreased | decreased depending on the concentration of FGF2 | decreased | induced Cdx2-expressing intestinal cells | induced at much lower levels; also recorded: small in extent | 40 | significant increase | about 60% | more efficiently differentiate | –
2 | activin: recombinant human activin-A (R&D Systems) (protein, UniProt P08476 311-426, looked up, Inhibin beta A chain) Inhibin beta A chain: GLECDGKVNICCKKQFFVSFKDIGWNDWIIAPSGYHANYCEGECPSHIAGTSGSSLSFHSTVINHYRMRGHSPFANLKSCCVPTKLRPMSMLYYDDGQNIIKKDIQNMIVEECGCS | – | – | – | – | – | – | – | – | – | differentiated into definitive endoderm

From patent US9376665B2, “Method for producing intestinal cells” (National University Corporation Kumamoto University, priority 2010, dated 2016)
